One compound from patent US20220002411A1, “METHODS FOR TREATING IMMUNE RELATED OCULAR DISORDERS” (LEGEND MEDICAL-RIMONCI VISION TECHNOLOGY INCUBATION LIMITED, priority 2019, published 2022) can be followed below.

In this test the test system is glaucoma mice (high intraocular pressure, C57BL/6J). In words: Glaucoma mouse model induced by intraocular injection of polystyrene microparticles (RGC and axon damage). Format: in vivo, C57BL/6J mice. The note with it: 2 μl once a week at 0.2 μg/ml intravitreal; observed after 8 weeks; compared to IgG injected mice / controls. How it is done:
Glaucoma mouse model. Two glaucoma mice models were used in the following experiments. In the first model, high intraocular pressure was induced in adult C57BL/6J mice by injecting polystyrene microparticles. First, mice were anesthetized by intraperitoneal injection of a mixture of ketamine (120 mg/kg) and xylazine (12 mg/kg). Then, a small puncture in the center of the right cornea of the mouse was incised with a 30 G needle (BD, USA). Then, 3 to […] of polystyrene particles of 15 μm diameter (Invitrogen, Oregon, USA) were injected at a 5×10^6/ml concentration into the right anterior chamber of the eye by a glass micro-injector. Left eyes were used as controls, by injecting […] of PBS into the left anterior chamber in a similar manner
Treatment with immune checkpoint inhibitors. […]
Pathologic assessments. After mice were sacrificed, optic nerve and retinal patches were taken to assess optic nerve damage. The optic nerve was fixed overnight with Karnovsky solution. Transverse sections of the optic nerve were obtained 2 mm after the eyeball and observed by electron microscopy (EM410, Philips). For retinal patches the eyeball was fixed with 4% paraformaldehyde overnight. Retinal patches and frozen sections were taken. Retinal ganglion cells (RGCs) were labeled with beta 3 tubulin (Invitrogen) and recorded using a confocal laser microscope (Olympus FV1000). […]

Turning to `Nc1ncnc2c1ncn2[C@@H]1O[C@H](CO)[C@@H](O)[C@H]1O` [adenosine], the “RGCs loss (beta 3 tubulin staining)” value is recorded as “decreased RGCs loss”.
